Data taken from patent publication US11156599B2, “Assay for telomere length regulators” (The Johns Hopkins University, priority 2015, dated 2021).

Columns and labels:
[1] = system: de novo telomere addition on chr4 in SL13 cells; test: ADDIT assay (Addition of de novo initiated telomeres): modified STELA PCR and PacBio sequencing; format: cell-based, mouse; conditions: for de novo telomere addition compared to DMSO control: cells treated with DMSO, KU55933, Olaparib or both drugs
Text: To examine potential mammalian genes that regulate telomere length, an assay was developed that allows visualization of telomere addition in vivo, referred here as ADDIT (Addition of de novo initiated telomeres). In a chromosomally stable CASTEiJ mouse fibroblast cell line, chromosome 4 (chr4) was modified to generate an internal 480 bp telomere ‘seed’ sequence followed by a unique I-Sce1 endonuclease cut site (FIG. 1A). The length of seed sequence was based on an early study showing that 400 bp of telomere repeats can act as functional telomeres. Using Southern blot analysis, two independent HYG-positive clones were identified, clone 1L and 1M, with a single chr4 allele correctly modified (data not shown).
To better visualize the telomere addition on the I-Sce1 cut telomere seed, the single telomere length analysis (STELA) (Baird et al., 2004, Hum Mol Genet 13, 1515-1524), a PCR-based approach that can measure telomere lengths from individual chromosome ends was modified. The STELA assay employs annealing and ligation of a linker, ‘telorette’, with TTAGGG and a unique 20-nucleotide sequence to the G-rich 3′ telomere overhang followed by PCR of the telomere from a ‘teltail’ primer and primer in the HYG sequence on the engineered chromosome (FIG. 2). The PCR product lengths will be proportional to the telomere lengths at the cleaved chr4 allele. As a control, to amplify the un-extended cut chromosome in vitro, a different linker, ‘IScerette’ was designed, which has a 4-nt homology to the 4-nt 3′ overhang created by the I-Sce1 endonuclease at the cleavage site (FIG. 2). […] This in vitro IScerette PCR product serves as a marker for the base line length of the cut, unextended telomere seed sequence.
To further verify the longer STELA PCR products represent de novo telomere addition, the PCR products were sequenced with Pacific Biosciences (PACBIO®) next generation sequencing technology. The PACBIO® platform produces longer reads and is less GC bias compared to other next generation sequencing platforms. While errors were present in the sequence as expected, the telomere repeats were easily recognizable. All of the reads from the PACBIO® were filtered and only those that had unique HYG sequence followed by telomere sequence and the ‘teltail’ primer sequence were examined. This assures that only full length of STELA PCR products were analyzed. The reads were then aligned at the junction between the HYG sequence and the telomere repeats. Wild-type TTAGGG repeats were colored orange and variant telomere repeats were colored in darker orange (FIG. 3A). Some of these variants arose due to errors in sequencing. An error rate similar to the published error rate of PACBIO® sequencing, 10-15% was observed. The errors were uniformly distributed over the reference sequence, dominated by point insertions and deletions, as expected for PACBIO® sequencing. There were three regions of divergent sequence in the original construct that are evident as darker orange stripes in the aligned reads (see for reference, in vitro IScelrette). These are small variation in TTAGGG sequence in the original SL13 clone and serve as useful internal reference points.
The original STELA protocol used for human cells (Baird et al., 2004, Hum Mol Genet 13, 1515-1524) was modified to measure telomere lengths on the de novo end of chr4 in SL13 cells. Briefly, genomic DNA was extracted using Puregene Core Kit A ^TM (Qiagen). 4 μg of genomic DNA was digested with SphI (NEB) and later diluted to 10 ng/μl in water. For the in vitro IScerette sample, genomic DNA was digested with SphI and I-SceI (NEB) prior to ligation. The ligation was carried out at 35° C. for at least 12 hrs in a volume of 10 μl containing 10 ng of digested genomic DNA, 0.9 μM of telorette linkers (mixture of telorette 1 to 6) or IScerette linker and 0.5 U of T4 DNA ligase (NEB) in 1× T4 ligation buffer. […]

[2] = system: SL13 cells; test: Telomere length by Southern blot in continuously growing SL13 cells; format: cell-based, mouse
Protocol: Given that ATM inhibitor KU55933 treatment prevents telomere elongation by telomerase overexpression, whether KU55933 treatment shortens telomere lengths in continuously growing cells was tested. […] The distinct non-telomeric bands served as useful loading controls, confirming all lanes were equally loaded (FIG. 9B, pixel position 1 and 3).
Cell lines such as 293FT and HCT116 were grown in DMEM (Gibco) supplemented with 1% Penicillin/Streptomycin/Glutamine (PSG) and 10% heat inactivated FBS (Invitrogen). SL13 cells were grown in DMEM (Gibco) supplemented with 1% PSG and 10% Tet system approved FBS (Clontech, #631107). Final concentration of 2 μg/ml of doxycycline was added in the media to induce I-Sce1 expression. Typically cells were collected post 48 hours of doxcycline treatment. […]
To measure telomere lengths by Southern blot, genomic DNA was extracted from cell pellets collected at different population doublings using the Puregene Core Kit A™ (Qiagen). […] Labeled probe was counted and 10^6 counts/ml (telomere probe) or 10^4 counts/ml (ladder) was denatured at 100° C. for 5 minutes and added to the pre-hybridization solution and hybridized overnight at 65° C. Membranes were washed 3× 15 minutes each in 6× SSC and 1% SDS at 65° C., and 3× 15 minutes each in 1× SSC and 1% SDS at 65° C. and exposed to a phosphorimager screen and detected on a Fuji phosphorimager. […]

| SMILES | de novo telomere addition compared to DMSO control ([1]; different STELA primers) | percentage of reads with telomere elongation ([1]; cells treated with Olaparib or both drugs, different STELA primers) [%] | telomere length at various PDs ([2]; SL13 cells grown in the presence of Olaparib, Southern blot) | addition of de novo telomere repeats beyond the I-Sce1 site ([1]; 48 hrs doxycycline, 10 μM KU55933 or 5 nM siATM) | telomere lengths at various population doublings ([2]; SL13 cells, 10 μM KU55933) |
| --- | --- | --- | --- | --- | --- |
| O=C(c1cc(Cc2n[nH]c(=O)c3ccccc23)ccc1F)N1CCN(C(=O)C2CC2)CC1 [Olaparib] | significantly higher percentage of de novo telomere addition | 22.4 | gradually increased after 25 PDs | – | – |
| O=c1cc(-c2cccc3c2Sc2ccccc2S3)oc(N2CCOCC2)c1 [KU55933] | less de novo telomere addition compared to DMSO control | – | – | fewer and significantly shorter elongation products | gradually shortened with increasing cell PDs |
